{"source": "patent US20040076974A1", "about": "“Liver necrosis predictive genes” (priority 2002, published 2004)", "key": {"Sprague Dawley rats": {"tested_on": "Sprague Dawley rats", "conditions": "for Liver Necrosis / Score (histopathology liver necrosis severity score): rat, intraperitoneal; for Liver Necrosis: 72 hours after treatment; for Score (histopathology liver necrosis severity score): 72 hours, 1 = not remarkable, 2 and higher increasing severity", "procedure,_shortened": "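Toxicity calls (necrosis present or absent at 72 h) and histopathology scores were correlated with tissue gene expression from Crl:CD Sprague Dawley rats. Animals, usually 3 treated with compound by i.p. route and 3 given vehicle, were killed at 6, 24 or 72 h and tissues frozen immediately in liquid nitrogen.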"}, "[1]": {"tested_on": "toxicologically relevant rat genes (rat CT array)", "conditions": "24 h; dose 200; listed as BRB"}}, "note": "“And” between values parts separate entries of the source, which are not always exact repeats. Identical values can stand only once. Like-named read-outs stand apart in the source and are kept apart here."}
{"molecule": "Brc1ccccc1", "note": "[bromobenzene]", "values": [{"measurement": "Liver Toxicity Necrosis Classification", "setting": "Sprague Dawley rats; 72 h, compound-dose group, dose BRB 800, BUS 14, CAD 1, CAR 16", "result": "yes"}, {"measurement": "Liver Toxicity Necrosis Classification", "setting": "Sprague Dawley rats; 72 h, dose 200, animals 2327, 2328, 2329", "result": "yes"}, {"measurement": "Liver Toxicity Necrosis Classification", "setting": "Sprague Dawley rats; 72 h, dose 800, animal 2337", "result": "yes"}, {"measurement": "Liver Toxicity Necrosis Classification", "setting": "Sprague Dawley rats; compound-dose group at 72 h, dose 200, yes = necrosis observed", "result": "yes"}, {"measurement": "Liver Toxicity Necrosis Classification", "setting": "Sprague Dawley rats; compound-dose group at 72 h, dose 800, yes = necrosis observed", "result": "yes"}, {"measurement": "Liver Toxicity Necrosis Classification", "setting": "Sprague Dawley rats; compound-dose group at 72 h, dose 200", "result": "yes"}, {"measurement": "Liver Toxicity Necrosis Classification", "setting": "Sprague Dawley rats; compound-dose group at 72 h, dose 800", "result": "yes"}, {"measurement": "Liver Necrosis", "setting": "Sprague Dawley rats; dose 0.2 ml/kg", "result": "Yes"}, {"measurement": "Score (histopathology liver necrosis severity score)", "setting": "Sprague Dawley rats; dose 0.2 ml/kg", "result": 2}, {"measurement": "Liver Necrosis", "setting": "Sprague Dawley rats; dose 0.8 ml/kg", "result": "Yes"}, {"measurement": "Score (histopathology liver necrosis severity score)", "setting": "Sprague Dawley rats; dose 0.8 ml/kg", "result": 4}, {"measurement": "3-hydroxyisobutyrate dehydrogenase expression (treatment/control)", "setting": "[1]", "result": "0.8751 and 1.339 and 0.6927"}, {"measurement": "14-3-3 zeta expression (treatment/control)", "setting": "[1]", "result": "1.437 and 1.592"}, {"measurement": "25-DX expression (treatment/control)", "setting": "[1]", "result": "1.969 and 1.763 and 1.86"}, {"measurement": "60S ribosomal protein L6 expression (treatment/control)", "setting": "[1]", "result": "2.093 and 1.63 and 1.941"}, {"measurement": "Alpha-2-macroglobulin expression (treatment/control)", "setting": "[1]", "result": "0.5548 and 0.5467 and 0.459"}, {"measurement": "Apolipoprotein CIII expression (treatment/control)", "setting": "[1]", "result": "0.8126 and 0.7007"}, {"measurement": "Argininosuccinate lyase expression (treatment/control)", "setting": "[1]", "result": "2.651 and 1.764 and 2.145"}, {"measurement": "Bax (alpha) expression (treatment/control)", "setting": "[1]", "result": "1.536 and 1.414 and 1.327"}, {"measurement": "Beta-actin expression (treatment/control)", "setting": "[1]", "result": "2.486 and 1.816 and 2.608"}, {"measurement": "Beta-tubulin, class I expression (treatment/control)", "setting": "[1]", "result": "2.668 and 1.782 and 2.339"}, {"measurement": "Carbonyl reductase expression (treatment/control)", "setting": "[1]", "result": "1.678 and 1.035 and 1.375"}, {"measurement": "Cathepsin L, sequence 2 expression (treatment/control)", "setting": "[1]", "result": "2.896 and 1.549 and 2.344"}, {"measurement": "Cofilin expression (treatment/control)", "setting": "[1]", "result": "2.923 and 2.064 and 2.935"}, {"measurement": "DNA polymerase beta expression (treatment/control)", "setting": "[1]", "result": "1.369 and 1.206 and 1.307"}, {"measurement": "Dynamin-1 (D100) expression (treatment/control)", "setting": "[1]", "result": "0.8053 and 0.7635 and 0.8226"}, {"measurement": "Elongation factor-1 alpha expression (treatment/control)", "setting": "[1]", "result": "2.054 and 1.728 and 1.8"}, {"measurement": "Endogenous retroviral sequence, 5′ and 3′ LTR expression (treatment/control)", "setting": "[1]", "result": "1.854 and 1.585 and 2.582"}, {"measurement": "Enolase alpha expression (treatment/control)", "setting": "[1]", "result": "2.419 and 1.535 and 1.712"}, {"measurement": "Epidermal growth factor expression (treatment/control)", "setting": "[1]", "result": "0.7593 and 0.7117 and 0.804"}, {"measurement": "Fas antigen expression (treatment/control)", "setting": "[1]", "result": "0.9199 and 0.9142 and 1.12"}, {"measurement": "Glucose-regulated protein 78 expression (treatment/control)", "setting": "[1]", "result": "1.405 and 1.625 and 1.635"}, {"measurement": "Hepatic lipase expression (treatment/control)", "setting": "[1]", "result": "0.569 and 0.6299 and 0.3937"}, {"measurement": "ID-1 expression (treatment/control)", "setting": "[1]", "result": "1.9 and 1.248 and 1.715"}, {"measurement": "Integrin beta1 expression (treatment/control)", "setting": "[1]", "result": "1.457 and 0.9085 and 1.427"}, {"measurement": "MAP kinase kinase expression (treatment/control)", "setting": "[1]", "result": "1.27 and 1.166 and 1.092"}, {"measurement": "Matrin F/G expression (treatment/control)", "setting": "[1]", "result": "0.6546 and 0.8987 and 0.4635"}, {"measurement": "Matrix metalloproteinase-1 expression (treatment/control)", "setting": "[1]", "result": "1.585 and 1.263 and 1.628"}, {"measurement": "Melanoma-associated antigen ME491 expression (treatment/control)", "setting": "[1]", "result": "1.388 and 0.9209 and 1.67"}, {"measurement": "Monocyte chemotactic protein receptor (CCR2) expression (treatment/control)", "setting": "[1]", "result": "1.124 and 0.9935 and 1.064"}, {"measurement": "Multidrug resistant protein-2 expression (treatment/control)", "setting": "[1]", "result": "1.861 and 1.261 and 1.657"}, {"measurement": "Nucleoside diphosphate kinase beta isoform expression (treatment/control)", "setting": "[1]", "result": "1.862 and 1.504 and 1.541"}, {"measurement": "Organic anion transporter 3 expression (treatment/control)", "setting": "[1]", "result": "0.5569 and 0.821 and 0.6551"}, {"measurement": "Organic cation transporter 3 expression (treatment/control)", "setting": "[1]", "result": "1.241 and 0.9547 and 1.365"}, {"measurement": "Ornithine decarboxylase expression (treatment/control)", "setting": "[1]", "result": "2.762 and 1.488 and 2.288"}, {"measurement": "Phase-1 RCT-12 expression (treatment/control)", "setting": "[1]", "result": 1.003}, {"measurement": "Phase-1 RCT-15 expression (treatment/control)", "setting": "[1]", "result": "2.352 and 2.155"}, {"measurement": "Phase-1 RCT-36 expression (treatment/control)", "setting": "[1]", "result": "0.7233 and 0.7082 and 0.8303"}, {"measurement": "Phase-1 RCT-37 expression (treatment/control)", "setting": "[1]", "result": 0.9672}, {"measurement": "Phase-1 RCT-65 expression (treatment/control)", "setting": "[1]", "result": "1.706 and 1.856"}, {"measurement": "Phase-1 RCT-68 expression (treatment/control)", "setting": "[1]", "result": "1.972 and 1.887"}, {"measurement": "Phase-1 RCT-72 expression (treatment/control)", "setting": "[1]", "result": 1.442}, {"measurement": "Phase-1 RCT-78 expression (treatment/control)", "setting": "[1]", "result": "0.6352 and 0.7712 and 0.5322"}, {"measurement": "Phase-1 RCT-83 expression (treatment/control)", "setting": "[1]", "result": "0.6204 and 0.729"}, {"measurement": "Phase-1 RCT-88 expression (treatment/control)", "setting": "[1]", "result": "0.7128 and 0.75 and 0.8397"}, {"measurement": "Phase-1 RCT-109 expression (treatment/control)", "setting": "[1]", "result": "1.895 and 1.651 and 2.226"}, {"measurement": "Phase-1 RCT-117 expression (treatment/control)", "setting": "[1]", "result": "0.6683 and 0.7437"}, {"measurement": "Phase-1 RCT-123 expression (treatment/control)", "setting": "[1]", "result": "0.7152 and 0.6828 and 0.8648"}, {"measurement": "Phase-1 RCT-137 expression (treatment/control)", "setting": "[1]", "result": "1.102 and 0.6023"}, {"measurement": "Phase-1 RCT-152 expression (treatment/control)", "setting": "[1]", "result": "1.957 and 1.542 and 2.109"}, {"measurement": "Phase-1 RCT-154 expression (treatment/control)", "setting": "[1]", "result": "0.9986 and 1.304"}, {"measurement": "Phase-1 RCT-168 expression (treatment/control)", "setting": "[1]", "result": "0.6821 and 0.7986 and 0.5665"}, {"measurement": "Phase-1 RCT-180 expression (treatment/control)", "setting": "[1]", "result": 1.503}, {"measurement": "Phase-1 RCT-181 expression (treatment/control)", "setting": "[1]", "result": "0.8932 and 0.9997"}, {"measurement": "Phase-1 RCT-182 expression (treatment/control)", "setting": "[1]", "result": "1.301 and 0.688"}, {"measurement": "Phase-1 RCT-189 expression (treatment/control)", "setting": "[1]", "result": "0.5887 and 0.552"}, {"measurement": "Phase-1 RCT-191 expression (treatment/control)", "setting": "[1]", "result": "1.728 and 1.302 and 2.139"}]}
